Measured values: patent US11117919B2, “Icariside compound, preparation method thereof, and application thereof” (FOSHAN GOLDEN HEALTH TECHNOLOGY CO., LTD., priority 2015, dated 2021)

Tests used:
[1] = test system: PBMCs from healthy human; assay: IFN-γ production by PBMCs of healthy human cultured with icariside I (Example 9); type: cell-based; conditions: 0.1, 0.5, 1 μg/ml, 48 h
Description: (1) Isolation of human peripheral blood mononuclear cells (PBMCs): according to the method stated in Example 5 (2), normal human peripheral blood PBMCs were prepared.
(§1) (3) PBMCs and PFMCs cell culture (MLC) with stimulation by a pharmaceutical: Icariside I was used at concentrations of 0.1 μg/ml, 0.5 μg/ml, and 1 μg/ml respectively to stimulate PBMCs and PFMCs under the incubation condition at 37° C. with 5% CO2 for 48 hours.
(4) ELISA assay for analysis of IFN-γ: according to the method stated in Example 5 (4), the levels of γ-interferon produced by PBMCs and PFMCs after culture with pharmaceutical stimulations were measured.
PBMCs from healthy human and PFMCs from TB infected patients were respectively cultured for 2 days (48 h), then added or not added with the pharmaceutical icariside I (at a gradient of different concentrations). […] Among the tests, the concentrations of icariside I added were 0.1, 0.5 and 1 μg/ml. *P<0.05; **-***P<0.01.

[2] = type: in vivo; conditions: observation for 14 days
Description: Mice weighed 18-22 grams were randomly divided into six groups with 10 mice each group. Each individual group of mice were treated (orally) with: physiological saline, DMSO 2.5 ml/kg, and icariside I: 2000 mg/kg, 1000 mg/kg, 500 mg/kg, 100 mg/kg respectively. […] Therefore, the acute toxicity of icariside I is very low which is safe for use in preparation of pharmaceuticals, health products, food, and cosmetic and skin care products for prevention and treatment of immunity-related diseases.

[3] = test system: PFMCs from TB infected patients; assay: IFN-γ production by pleural fluid cells (PFMCs) of tuberculosis patients; type: cell-based, human; conditions: 0.1, 0.5, 1 μg/ml, 48 h
Description: (2) Isolation of Pleural fluid cells (PFMCs, namely cells stimulated by tuberculosis bacteria infection) from patients suffering from tuberculosis: blood samples were taken from volunteers (vein blood of TB patients) and then anticoagulated with heparin and diluted with an equal volume of Hank's solution. The solution was centrifuged once (1800 rpm, 22° C. 8 minutes). After removal of the supernatant, an appropriate amount of ELS (erythrocyte lysate) was added for re-suspension. After 3-5 minutes, an appropriate amount of Hank's solution was added for stop and then the mixture was centrifuged twice (1800 rpm, 22° C. 8 minutes), followed by addition of RPMI1640 complete medium to adjust the PBMC cell concentration to 2×10^9 cells/L.
as §1
(4) ELISA assay for analysis of IFN-γ: according to the method stated in Example 5 (4), the levels of γ-interferon produced by PBMCs and PFMCs after culture with pharmaceutical stimulations were measured. […]

[4] = test system: normal human peripheral blood mononuclear cells (PBMCs); assay: IFN-γ production by PBMCs stimulated with Anti-CD3/Anti-CD28 (ELISA); type: cell-based; conditions: PBMCs treated with anti-CD3 and anti-CD28 (1 μg/ml each); icariside I 1, 10, 100 ng/ml; 12-48 h; dose-dependent
Description: Effect of icariside I on promoting normal human peripheral blood mononuclear cells (PBMCs subjected to mAb treatment) to produce γ-interferon (interferon-gamma, IFN-γ) (an experimental model mimicking enhancing immunity in human body).
(1) Preparation of icariside I solution for the test. 10 mg icariside I was dissolved in 1 ml DMSO (with initial concentration of 10 mg/ml). The solution was then transferred into small vials and stored in a freezer at −80° C. for future use.
The whole blood samples were drawn from peripheral vein of healthy volunteers. Heparin (blood:heparin=10 ml: 80 μl) was used for anticoagulation. Then, it is diluted with equal volume of Hank's solution. The diluted blood samples were slowly laid on the Ficoll separation solution (Ficoll to diluted blood ratio is 3:4) followed by Ficoll density gradient centrifugation (22° C. 2200 r/min, 20 min). After centrifugation, samples were divided into three layers in the tube. At the interface between the top and middle layers, there was a narrow band which is a mononuclear cell-based yellow-white cloud layer. The peripheral blood mononuclear cells (PBMCs) were drawn and transferred into another centrifuge tube with a pipette. […] The mononuclear cells were counted with trypan blue solution. […]
The collected cell culture supernatants with different culture time were detected with ELISA to measure the amount of cytokine IFN-γ produced. […]

COc1ccc(-c2oc3c(CC=C(C)C)c(O[C@@H]4O[C@H](CO)[C@@H](O)[C@H](O)[C@H]4O)cc(O)c3c(=O)c2O)cc1 [icariside I]
effect on PBMCs in producing IFN-γ [1]: no significant promoting effect | acute toxicity LD50 ([2]; mice, oral): greater than 2000 mg/kg | deaths of test mice ([2]; oral 100-2000 mg/kg): none of the test mice died | effect on PFMCs in producing IFN-γ [3]: significant and dose dependent effect | IFN-γ level produced by PBMCs [4]: significantly enhanced
